Here are results for 5 compounds from patent US20110076377A1, “ETHOID COMPOUNDS FOR USE AS FOOD ADDITIVES” (UNIVERSITY OF VIRGINIA PATENT FOUNDATION, priority 2007, published 2011).

Residues, ends and D or L forms follow the SMILES beside them.

For series [1] the following is noted: reported, background; cited from earlier work.
Series [2] is described as follows: Comparative stability of aspartame and aspartame ethoid in PBS solution (HPLC-MS). It is filed as physicochemical. The following applies: for half-life: 65° C., PBS pH 7.5; for Cyclized product (%) / SM (%): AUC at 214 nm; for degradation at the 12 hour time point: FIG. 1, PBS pH 7.5, 65° C. As to the method:
Solutions of Aspartame and Compound 1 were prepared by dissolving 10 mg of the subject dipeptide in 4 ml of PBS, pH=7.5. […] Aliquots (50 μl) were withdrawn at the following times: 0, 24 h, 36 h, 48 h and 60 h, and diluted with 125 μl of methanol/acetonitrile/0.1% TFA.
The samples were analyzed by HPLC-MS, using a Gilson HPLC with dual wavelengths UV detector (214 and 254 nm). The following conditions were employed: column: C18; 4.6×250 mm; 5 μmx 6A; solvent system: H2O-1% TFA/Acetonitrile-1% TFA, 1 ml/min, with a gradient of 10% organic phase to 100% organic phase in 10 minutes, followed by a 10 minute hold at 100% of organic phase. As shown in the reaction schemes above, decomposition proceeds mainly via a cyclization reaction to form the corresponding cyclized product and methanol.
The AUC (at 214 nm) values corresponding to the dipeptide and corresponding cyclized products (aspartame→diketopiperazine and aspartame ethoid→ketooxazine) are summarized in the following Table.
See, e.g., FIG. 1, which provides plots of the logarithm of percent of intact dipeptide remaining over time, in hours, for both aspartame and the methyleneoxy ethoid of aspartame. […] The rate of degradation of the methyleneoxy ethoid of aspartame is time, temperature, and pH dependent.

For series [3], the system named is taste-test volunteers. The series is described as follows: Blind taste test of sweetening potency of aqueous solutions. The series is classed as in vivo. The settings on record: aqueous solutions at 1 mg/ml and 5 mg/ml, six volunteers. As to the method: The sweetening potency of Compounds 1 and 2 was established by conducting blind taste tests of aqueous solutions of each of Compound 1 and 2 compared to aqueous solutions of each of sucrose and aspartame at concentrations of both 1 mg/ml and 5 mg/ml. […] Furthermore, Compound 1, the ethoid version of aspartame, was reported to be approximately 5 to 10 times sweeter than aspartame by the taste-test volunteers.

Series [4] is described as follows: Solution stability of methyleneoxy ethoid of neotame relative to neotame. The series is classed as physicochemical. The following applies: FIG. 5B, 60° C., PBS pH 7.5, hydrolysis of methyl ester. As to the method: FIGS. 5A and 5B illustrate the temperature stability of an exemplary ethoid of neotame compared to neotame itself. […] FIG. 5B provides a comparison of the rate of degradation of the methyleneoxy ethoid of neotame versus neotame over time at 60° C. in a solution of phosphate buffered saline at pH 7.5. Specifically, FIG. 5B is a plot of the natural logarithm of the concentration of (neotame/neotame ethoid) over time. The decomposition reaction proceeds via hydrolysis of the methyl ester to the corresponding di-carboxylic acid.
The solution stability of Compound 3 at various temperatures was examined and compared to that of neotame.
The major route leading to loss of neotame is hydrolysis of the methyl ester group as shown above. […] The rates of degradation of neotame and the methyleneoxy ethoid of neotame were examined and compared. […] FIG. 5B is a plot comparing the rate of degradation of neotame to that of the corresponding ethoid.

In the case of `COC(=O)[C@H](Cc1ccccc1)NC(=O)[C@@H](N)CC(=O)O` [Aspartame, L-aspartyl-L-phenylalanine methyl ester, reference compound] (H-Asp-Phe-OMe), the “sweetness relative to an equivalent amount of sugar” value in series [1] was 150 fold. Further, the “sweetness relative to sugar” value in series [1] was “approximately 150 times”. In series [2], this compound had a half-life of 2.5 h. Further, the “Cyclized product (%)” value is listed as 0% in series [2] (PBS pH 7.5, 40° C., time 0 h); 95% in series [2] (PBS pH 7.5, 40° C., time 24 h); 100% in series [2] (PBS pH 7.5, 40° C., time 36 h); 100% in series [2] (PBS pH 7.5, 40° C., time 48 h); 100% in series [2] (PBS pH 7.5, 40° C., time 60 h). For the same compound, the “SM (%)” value came out at 100% in series [2] (PBS pH 7.5, 40° C., time 0 h); 5% in series [2] (PBS pH 7.5, 40° C., time 24 h); 0% in series [2] (PBS pH 7.5, 40° C., time 36 h); 0% in series [2] (PBS pH 7.5, 40° C., time 48 h); 0% in series [2] (PBS pH 7.5, 40° C., time 60 h). For the same compound, in series [2], the “degradation at the 12 hour time point” value is reported as “essentially complete”.

Take `COC(=O)C(Cc1ccccc1)OCC(N)CC(=O)O` (centres unmarked) [Compound 1, asp-CH2—O-phe]: in series [2], the “phenylalanine formation upon degradation” value is “does not form phenylalanine”, the half-life was 305 h and the “degradation at the 12 hour time point” value was “negligible”. Further, in series [2] (PBS pH 7.5, 40° C., time 0 h), the “Cyclized product (%)” value is listed as 0% and the “SM (%)” value is reported as 100%. Also, in series [2] (PBS pH 7.5, 40° C., time 24 h), the “Cyclized product (%)” value was found to be 0% and the “SM (%)” value is recorded as 100%. In series [2] (PBS pH 7.5, 40° C., time 36 h), the “Cyclized product (%)” value is listed as 0% and the “SM (%)” value was determined as 100%. Besides, in series [2] (PBS pH 7.5, 40° C., time 48 h), the “Cyclized product (%)” value was 0% and the “SM (%)” value amounted to 100%. Moreover, in series [2] (PBS pH 7.5, 40° C., time 60 h), the “Cyclized product (%)” value came out at 0% and the “SM (%)” value stood at 100%. For the same compound, in series [2] (Example 4), the “diketopiperazine formation upon degradation” value is on record as “no diketopiperazine (dkkp) formation”. For the same compound, in series [2] (PBS pH 7.5, 40° C., up to 60 h), the “degradation in solution at 40° C.” value is given as “essentially no degradation was observed”. In series [2] (half lives at 65° C., ethoid versus aspartame), the “improvement of stability over aspartame” value is reported as “over a hundred-fold”. For the same compound, in series [3], the “sweetness compared to sucrose solution” value is recorded as “significantly sweeter than sugar” and the “sweetness relative to aspartame” value was “several-fold sweeter”.

For `CC(=O)NC(COC(CCCCN)C(=O)O)Cc1ccccc1` (centres unmarked) [Compound 2, N—Ac-Phe-CH2—O-Lys], in series [3], the “sweetness compared to sucrose solution” value is listed as “significantly sweeter than sugar”.

For `COC(=O)C(Cc1ccccc1)OCC(CC(=O)O)NCCC(C)(C)C` (centres unmarked) [Compound 3], the “rate of degradation compared to neotame” value in series [4] was “nearly identical”.

With `O=C1NS(=O)(=O)c2ccccc21` [saccharin], the “sweetness relative to sugar” value in series [1] is 300-450 times.

What is called half-life is how long it takes for the measured level to halve. Higher therefore signals slow decline.
